The nature of series [1]: Stability test (exposure test) of sensor at 30° C., 80% humidity. As to conditions: for change in the response current value after the exposure test: 24 hours at 30° C., 80% relative humidity; for Sensor stability % change in response current value between before and after 24 hours exposure at 30° C. and 80% humidity: additive in reagent layer, additive conc. 1.0-5.0 mM.
Procedure: Sensors were manufactured in the same manner as described in section [1-5] using the reagent solutions prepared above. The sensors manufactured were exposed to an environment of high temperature and humidity (30° C., 80% relative humidity) for 24 hours. Response current values of the pre- and post-exposed sensors were measured for a series of glucose solutions of known concentrations.
Sensors were manufactured using fresh reagent solutions having the same compositions as described above. The sensors were subjected to an exposure experiment where they were allowed to stand for 24 hours at 30° C. and 80% humidity. Response current values of non-exposed sensors (i.e., sensors stored under the ambient condition (25° C., 5% humidity) for 24 hours) and the exposed sensors were measured for a series of glucose solutions of known concentrations.
A short description of series [2]: Storage stability of reagent solution (response current of sensors made with stored vs fresh reagent solution). Format: physicochemical. The text has this:
A sensor having the configuration illustrated in FIG. 1 was manufactured. The detailed procedure will now be described. First, by sputtering palladium, 8 nm-thick conductive layer 3 was deposited on substrate 2 which was 30 mm in length, 7 mm in width and 0.2 mm in thickness and which contained polyethylene terephthalate as its main component. Thereafter, a 0.1 mm-width non-conductive track was formed by laser ablation, to form electrodes 31 to 33. Electrode 31 was designed to function as a working electrode, electrode 32 as a counter electrode, and electrode 33 as a sensing electrode.
Using a microsyringe, 1.2 μL of each reagent solution was applied to form reagent layer 4 in a shape of 2.2 mm diameter-circular. After formation of reagent layer 4, spacer 5 (0.145 mm thick) having a cut-out with a length of 3.4 mm a width of 1.2 mm and cover 6 were sequentially attached to the substrate having the electrodes formed thereon. In this way a sensor was manufactured that has a capillary having a volume of 0.6 μL. […]
Response current values of each sensor were measured using a series of glucose solutions of known concentrations.
By adding as an additive imidazole, histamine, histidine, 2-aminoimidazole, 4,5-bis(hydroxymethyl)imidazole, 1,2,4-triazole, 3-amino-1,2,4-triazole, 4-amino-1,2,4-triazole, 3,5-diamino-1,2,4-triazole, 2-methylimidazole, or 1,2-dimethylimidazole, reagent solutions were prepared that contain the same composition as reagent solution C except the type and concentration of the additive. The concentrations of the additives are as indicated in Tables below and the accompanying drawings.
Further, sensors were manufactured using the same reagent solutions stored at 25° C. and 5% humidity for 24 hours after preparation. […]

Series [3] can be described thus: Cyclic voltammetry of mediators, redox potential vs Ag|AgCl. Format: physicochemical. As to conditions: reference Ag|AgCl; for Eox (V): potential at peak oxidation current; for Ered (V): potential at peak reduction current; for EO′ (V) [(Ered + Eox)/2]: redox potential, average of Ered and Eox. As for the experimental part:
Redox potential (EO′) was calculated in the following procedure. Specifically, cyclic voltammetry using Ag|AgCl as the reference electrode was performed under the same conditions as those in Examples to be described later. Redox potential (EO′) was found as an average of the potential value at the peak oxidation current (Eox) and the potential value at the peak reduction current (Ered), i.e., [(Ered+Eox)/2].
Cyclic voltammetry was performed for the resultant reagent solution using the aforementioned sensor electrode. As a reference electrode, a silver/silver chloride (saturated potassium chloride) electrode (hereinafter “Ag|AgCl”) was used. The reference electrode was led to vent hole 61 of the sensor electrode via a salt bridge. A potentiostat was used for measurement. The electrodes and the potentiostat used were those commonly used in electrochemistry. These instruments can be purchased from BAS Inc., for example.
In cyclic voltammetry, a potential applied to the working electrode was swept linearly with respect to time. The sweeping rate was set to 0.1 V/second. First, a first potential was applied to the working electrode, and the electrode potential was swept toward negative potentials from the first potential to a second potential. The electrode potential was then swept back from the second potential to the first potential toward positive potentials. The first and second potentials were 0.2 V and […], respectively, […]

Series [4] can be described thus: Solubility in water of mediators. As to conditions: for solubility: water. Format: physicochemical. An excerpt: Solubilities in water of Compounds A, B, H′, I, I′ and J and disodium 9,10-phenanthrenequinone 2,7-disulfonate are given in Table 1.
The conditions of series [5]: cited from earlier work; for redox potential: coenzymes and phenanthroline quinone, background values.
Series [6] can be described thus: Redox / oxidation potentials stated in the description. In kind it is physicochemical.

Values after ≈ are worked out from the molar mass of the structure shown. Where two headings read alike, the source gives them in different places.

With `Nc1nc[nH]n1` [3-Amino-1,2,4-triazole], in series [1], the “change in the response current value after the exposure test” value (from here on “change in the response current value”) is “relatively small change in the response current value”; the “Sensor stability % change in response current value between before and after 24 hours exposure at 30° C. and 80% humidity” value (from here on “Sensor stability % change”) is recorded as −4%. In series [2], the “Reagent solution stability % change in response current value between before and after 24 hours storage at 25° C.” value (“Reagent solution stability % change” for short) is listed as 0%.
Turning to `Nc1n[nH]c(N)n1` [3,5-Diamino-1,2,4-triazole], in series [1], the “change in the response current value” value is listed as “relatively small change in the response current value”; the “Sensor stability % change” value was −2%. For the same molecule, the “Reagent solution stability % change” value in series [2] (additive in reagent solution C composition (PQSA, FAD-GDH), additive conc. 1.0-5.0 mM) is on record as −1%.
Take `O=C1C(=O)c2cc(S(=O)(=O)[O-])ccc2-c2ccc(S(=O)(=O)[O-])cc21.[Na+].[Na+]` [Disodium 9,10-phenanthrenequinone-2,7-disulfonate]: in series [3], the “Eox (V)” value is −0.06 V, the “Ered (V)” value is recorded as −0.18 V and the “EO′ (V) [(Ered + Eox)/2]” value is given as −0.12 V. The same molecule returned a Solubility in water in series [4] of at least 200 mM.
Regarding `c1nc[nH]n1` [1,2,4-Triazole], in series [1], the “change in the response current value” value is on record as “relatively small change in the response current value”; the “Sensor stability % change” value is listed as −14%. Besides, the “Reagent solution stability % change” value in series [2] is given as −12%.
As to `Cc1cc2nc3c(=O)[nH]c(=O)nc-3n(C[C@H](O)[C@H](O)[C@H](O)COP(=O)(O)OP(=O)(O)OC[C@H]3O[C@@H](n4cnc5c(N)ncnc54)[C@H](O)[C@@H]3O)c2cc1C` [FAD, flavin adenine dinucleotide], the redox potential result in series [5] is “approximately −300 mV”.
As to `O=C1C(=O)c2cccnc2-c2ncccc21` [phenanthroline quinone], the redox potential entry in series [5] is on record as “approximately 0 mV”.
For `O=C1C(=O)c2cc(S(=O)(=O)[O-])ccc2-c2ccccc21.[Na+]` [Sodium 9,10-phenanthrenequinone-2-sulfonate], in series [3], the “Eox (V)” value is −0.12 V, the “Ered (V)” value was −0.18 V and the “EO′ (V) [(Ered + Eox)/2]” value is on record as −0.15 V. The solubility in series [4] worked out at 80 mM.
In the case of `NCCCCN` [Butanediamine, reference compound], in series [1], the “Sensor stability % change” value was −51%.
As for `O=C1C(=O)c2cc(S(=O)(=O)O)ccc2-c2ccccc21` [9,10-phenanthrenequinone-2-sulfonic acid], the “redox potential of exemplary electron acceptors” value in series [6] is −140 mV.
Consider `O=C1C(=O)c2cc([N+](=O)[O-])ccc2-c2ccccc21` [Compound A], for which, in series [3], the “Eox (V)” value is −0.10 V, the “Ered (V)” value is recorded as −0.13 V and the “EO′ (V) [(Ered + Eox)/2]” value is −0.12 V. Moreover, in series [4] (read-out: Solubility in water), the solubility amounted to 1 mM (≈ 253 µg/mL).
In the case of `O=C1C(=O)c2cc(-c3ccc(S(=O)(=O)[O-])cc3)ccc2-c2ccccc21.[Na+]` [Compound H′], in series [3], the “Eox (V)” value is −0.14 V, the “Ered (V)” value is listed as −0.21 V and the “EO′ (V) [(Ered + Eox)/2]” value was −0.18 V. In addition, in series [4] (read-out: Solubility in water), the solubility was 20 mM.
Regarding `Nc1ccc2c(c1)C(=O)C(=O)c1ccccc1-2` [Compound B], in series [3], the “Eox (V)” value is listed as −0.19 V, the “Ered (V)” value is given as −0.23 V and the “EO′ (V) [(Ered + Eox)/2]” value is given as −0.21 V. For the same molecule, in series [4] (read-out: Solubility in water), the solubility was 1 mM (≈ 223 µg/mL).
In the same order, the values of `O=C(NCCS(=O)(=O)[O-])c1ccc(-c2ccc3c(c2)C(=O)C(=O)c2ccccc2-3)cc1.[Na+]` [Compound I′] are −0.14 V, −0.22 V, −0.18 V and 20 mM.
With Ethyleneamine [reference compound], the “Sensor stability % change” value in series [1] is recorded as −77%.
With `NCCCC[C@H](N)C(=O)O` [Lysine, reference compound], the “Sensor stability % change” value in series [1] is −31%. Further, in series [2], the “Reagent solution stability % change” value is reported as −20%.
On to `O=C(O)c1cc(C(=O)O)c2c(n1)C(=O)C(=O)c1cc(C(=O)O)[nH]c1-2` [PQQ, pyrroloquinoline quinone], for which the redox potential entry in series [5] was “approximately −200 mV”.
In the case of `O=C1O[C@H]([C@@H](O)CO)C(O)=C1O` [ascorbic acid], in series [5] (interfering substance, background value), the oxidation potential entry is reported as “approximately −140 mV”.
In the case of `NCCN` [Ethylenediamine, reference compound], the “Sensor stability % change” value in series [1] was −45%. For the same molecule, in series [2], the “Reagent solution stability % change” value was −3%.
On to `O=C([O-])c1ccc(-c2ccc3c(c2)C(=O)C(=O)c2ccccc2-3)cc1.[Na+]` [Compound I], for which, in series [3], the “Eox (V)” value was −0.14 V, the “Ered (V)” value is listed as −0.22 V and the “EO′ (V) [(Ered + Eox)/2]” value was −0.18 V. The solubility in series [4] (read-out: Solubility in water) stood at 5 mM.
On to `NCCc1c[nH]cn1` [Histamine], for which, in series [1], the “change in the response current value” value is “relatively small change in the response current value”; the “Sensor stability % change” value was −3%. In addition, the “Reagent solution stability % change” value in series [2] is on record as −2%.
On to `N=C(N)NCCC[C@H](N)C(=O)O` [Arginine, reference compound], for which the “Sensor stability % change” value in series [1] was −12%. Besides, in series [2], the “Reagent solution stability % change” value is −25%.
As for `N[C@@H](Cc1c[nH]cn1)C(=O)O` [Histidine], in series [1], the “change in the response current value” value is recorded as “relatively small change in the response current value”; the “Sensor stability % change” value was −12%. Besides, the “Reagent solution stability % change” value in series [2] is listed as −7%.
For `Nn1cnnc1` [4-Amino-1,2,4-triazole], in that order: “relatively small change in the response current value”, −4% and −6%.
In the same order, the values of `Nc1ncc[nH]1` [2-Aminoimidazole] are “relatively small change in the response current value”, −7% and −6%.
As to `Cc1nccn1C` [1,2-Dimethylimidazole], the “Sensor stability % change” value in series [1] is −44%. For the same molecule, the “Reagent solution stability % change” value in series [2] was 2%.
For `Cc1ncc[nH]1` [2-Methylimidazle, 2-methylimidazole], in that order: −44% and 1%.
Take `O=C([O-])c1cc(C(=O)[O-])cc(-c2ccc3c(c2)C(=O)C(=O)c2ccccc2-3)c1.[Na+].[Na+]` [Compound J]: in series [3], the “Eox (V)” value is given as −0.15 V, the “Ered (V)” value is on record as −0.23 V and the “EO′ (V) [(Ered + Eox)/2]” value is −0.19 V. Also, the solubility in series [4] (read-out: Solubility in water) amounted to 50 mM.
For the molecule `OCc1nc[nH]c1CO` [4,5-Bis(hydroxymethyl) imidazole, 4,5-bis(hydroxymethyl)imidazole], in series [1], the “change in the response current value” value is reported as “relatively small change in the response current value”; the “Sensor stability % change” value is recorded as −11%. In series [2], the “Reagent solution stability % change” value is −14%.

One may read the solubility as how much of the substance goes into solution per volume.

The values are drawn from patent US10761045B2, “Sensor, sensor system, method of manufacturing sensor, and method of measuring concentration of target substance” (PHC Holdings Corporation, priority 2010, dated 2020).
